# Data published in ChEMBL document CHEMBL1833873, “Design and synthesis of C35-fluorinated solamins and their growth inhibitory activities against human cancer cell lines” (2011).
# Legend:
# Format in all cases: functional
# HCT-15 = experiment: Cytotoxicity against human HCT15 cells after 48 hrs by sulforhodamine B assay; conditions: HCT-15, 48 h
# OVCAR-5 = experiment: Cytotoxicity against human OVCAR5 cells after 48 hrs by sulforhodamine B assay; conditions: OVCAR-5, 48 h
# SK-OV-3 = experiment: Cytotoxicity against human SKOV3 cells after 48 hrs by sulforhodamine B assay; conditions: SK-OV-3, 48 h
# HCT-116 = experiment: Cytotoxicity against human HCT116 cells after 48 hrs by sulforhodamine B assay; conditions: HCT-116, 48 h
# [1] = Cytotoxicity against human HBC4 cells after 48 hrs by sulforhodamine B assay; conditions: HBC4, 48 h
# SF-268 = experiment: Cytotoxicity against human SF268 cells after 48 hrs by sulforhodamine B assay; conditions: SF-268, 48 h
# NCI-H522 = experiment: Cytotoxicity against human NCI-H522 cells after 48 hrs by sulforhodamine B assay; conditions: NCI-H522, 48 h
# [2] = Cytotoxicity against human MKN1 cells after 48 hrs by sulforhodamine B assay; conditions: MKN-1, 48 h
# MDA-MB-231 = experiment: Cytotoxicity against human MDA-MB-231 cells after 48 hrs by sulforhodamine B assay; conditions: MDA-MB-231, 48 h
# SNB-75 = experiment: Cytotoxicity against human SNB75 cells after 48 hrs by sulforhodamine B assay; conditions: SNB-75, 48 h
# NCI-H226 = experiment: Cytotoxicity against human NCI-H226 cells after 48 hrs by sulforhodamine B assay; conditions: NCI-H226, 48 h
# U-251 = experiment: Cytotoxicity against human U251 cells after 48 hrs by sulforhodamine B assay; conditions: U-251, 48 h
# OVCAR-4 = experiment: Cytotoxicity against human OVCAR4 cells after 48 hrs by sulforhodamine B assay; conditions: OVCAR-4, 48 h
# MKN-7 = experiment: Cytotoxicity against human MKN7 cells after 48 hrs by sulforhodamine B assay; conditions: MKN-7, 48 h
# SNB-78 = experiment: Cytotoxicity against human SNB78 cells after 48 hrs by sulforhodamine B assay; conditions: SNB-78, 48 h
# ACHN = experiment: Cytotoxicity against human ACHN cells after 48 hrs by sulforhodamine B assay
# A549 = experiment: Cytotoxicity against human A549 cells after 48 hrs by sulforhodamine B assay; conditions: A549, 48 h
# HCC 2998 = experiment: Cytotoxicity against human HCC2998 cells after 48 hrs by sulforhodamine B assay; conditions: HCC 2998, 48 h
# MCF7 = experiment: Cytotoxicity against human MCF7 cells after 48 hrs by sulforhodamine B assay; conditions: MCF7, 48 h
# SF-539 = experiment: Cytotoxicity against human SF539 cells after 48 hrs by sulforhodamine B assay; conditions: SF-539, 48 h
# MKN-74 = experiment: Cytotoxicity against human MKN74 cells after 48 hrs by sulforhodamine B assay; conditions: MKN-74, 48 h
# LOX IMVI = experiment: Cytotoxicity against human LOXIMVI cells after 48 hrs by sulforhodamine B assay
# DMS-273 = experiment: Cytotoxicity against human DMS273 cells after 48 hrs by sulforhodamine B assay; conditions: DMS-273, 48 h
# HT-29 = experiment: Cytotoxicity against human HT-29 cells after 48 hrs by sulforhodamine B assay; conditions: HT-29, 48 h
# MKN-28 = experiment: Cytotoxicity against human MKN28 cells after 48 hrs by sulforhodamine B assay; conditions: MKN-28, 48 h
# MKN-45 = experiment: Cytotoxicity against human MKN45 cells after 48 hrs by sulforhodamine B assay; conditions: MKN-45, 48 h
# St-4 = experiment: Cytotoxicity against human St-4 cells after 48 hrs by sulforhodamine B assay; conditions: St-4, 48 h
# [3] = Cytotoxicity against human RXF631L cells after 48 hrs by sulforhodamine B assay; conditions: RXF 631, 48 h
# KM12 = experiment: Cytotoxicity against human KM12 cells after 48 hrs by sulforhodamine B assay; conditions: KM12, 48 h
# OVCAR-8 = experiment: Cytotoxicity against human OVCAR8 cells after 48 hrs by sulforhodamine B assay; conditions: OVCAR-8, 48 h
# NCI-H23 = experiment: Cytotoxicity against human NCI-H23 cells after 48 hrs by sulforhodamine B assay; conditions: NCI-H23, 48 h
# DU-145 = experiment: Cytotoxicity against human DU145 cells after 48 hrs by sulforhodamine B assay; conditions: DU-145, 48 h
# [4] = Cytotoxicity against human BSY1 cells after 48 hrs by sulforhodamine B assay; conditions: BSY-1, 48 h
# NCI-H460 = experiment: Cytotoxicity against human NCI-H460 cells after 48 hrs by sulforhodamine B assay; conditions: NCI-H460, 48 h
# SF-295 = experiment: Cytotoxicity against human SF295 cells after 48 hrs by sulforhodamine B assay; conditions: SF-295, 48 h
# PC-3 = experiment: Cytotoxicity against human PC3 cells after 48 hrs by sulforhodamine B assay; conditions: PC-3, 48 h
# DMS-114 = experiment: Cytotoxicity against human DMS114 cells after 48 hrs by sulforhodamine B assay; conditions: DMS-114, 48 h
# OVCAR-3 = experiment: Cytotoxicity against human OVCAR3 cells after 48 hrs by sulforhodamine B assay; conditions: OVCAR-3, 48 h
# [5] = Cytotoxicity against human HBC5 cells after 48 hrs by sulforhodamine B assay; conditions: HBC5, 48 h
SMILES,GI50 (HCT-15) [µM],GI50 (OVCAR-5) [µM],GI50 (SK-OV-3) [µM],GI50 (HCT-116) [µM],GI50 [1] [µM],GI50 (SF-268) [µM],GI50 (NCI-H522) [µM],GI50 [2] [µM],GI50 (MDA-MB-231) [µM],GI50 (SNB-75) [µM],GI50 (NCI-H226) [µM],GI50 (U-251) [µM],GI50 (OVCAR-4) [µM],GI50 (MKN-7) [µM],GI50 (SNB-78) [µM],GI50 (ACHN) [µM],GI50 (A549) [µM],GI50 (HCC 2998) [µM],GI50 (MCF7) [µM],GI50 (SF-539) [µM],further results
CCCCCCCCCCCC[C@@H](O)[C@H]1CC[C@H]([C@H](O)CCCCCCCCCCCCC2=C[C@H](CF)OC2=O)O1,> 100,> 100,> 100,16,> 100,> 100,15,58,59,63,51,> 100,> 100,19,> 100,> 100,76,> 100,45,> 100,GI50 (MKN-74): 40 µM; GI50 (LOX IMVI): > 100 µM; GI50 (DMS-273): 48 µM; GI50 (HT-29): 63 µM; GI50 (MKN-28): 7.8 µM; GI50 (MKN-45): 76 µM; GI50 (St-4): 37 µM; GI50 [3]: > 100 µM; GI50 (KM12): > 100 µM; GI50 (OVCAR-8): 16 µM; GI50 (NCI-H23): 12 µM; GI50 (DU-145): > 100 µM; GI50 [4]: 60 µM; GI50 (NCI-H460): 79 µM; GI50 (SF-295): 36 µM; GI50 (PC-3): 24 µM; GI50 (DMS-114): 6.9 µM; GI50 (OVCAR-3): > 100 µM; GI50 [5]: 32 µM
CCCCCCCCCCCC[C@@H](O)[C@H]1CC[C@H]([C@H](O)CCCCCCCCCCCCC2=C[C@H](C(F)F)OC2=O)O1,82,> 100,> 100,> 100,32,> 100,24,67,> 100,> 100,63,> 100,87,19,> 100,> 100,> 100,> 100,61,79,GI50 (MKN-74): 57 µM; GI50 (LOX IMVI): 15 µM; GI50 (DMS-273): 16 µM; GI50 (HT-29): > 100 µM; GI50 (MKN-28): 96 µM; GI50 (MKN-45): > 100 µM; GI50 (St-4): > 100 µM; GI50 [3]: > 100 µM; GI50 (KM12): > 100 µM; GI50 (OVCAR-8): 85 µM; GI50 (NCI-H23): 75 µM; GI50 (DU-145): > 100 µM; GI50 [4]: > 100 µM; GI50 (NCI-H460): > 100 µM; GI50 (SF-295): 44 µM; GI50 (PC-3): 60 µM; GI50 (DMS-114): 24 µM; GI50 (OVCAR-3): > 100 µM; GI50 [5]: 11 µM
CCCCCCCCCCCC[C@@H](O)[C@H]1CC[C@H]([C@H](O)CCCCCCCCCCCCC2=C[C@H](C(F)(F)F)OC2=O)O1,> 100,> 100,> 100,> 100,> 100,> 100,53,> 100,> 100,> 100,88,> 100,> 100,89,> 100,> 100,> 100,> 100,80,> 100,GI50 (MKN-74): > 100 µM; GI50 (LOX IMVI): > 100 µM; GI50 (DMS-273): > 100 µM; GI50 (HT-29): > 100 µM; GI50 (MKN-28): > 100 µM; GI50 (MKN-45): > 100 µM; GI50 (St-4): > 100 µM; GI50 [3]: > 100 µM; GI50 (KM12): > 100 µM; GI50 (OVCAR-8): > 100 µM; GI50 (NCI-H23): > 100 µM; GI50 (DU-145): > 100 µM; GI50 [4]: > 100 µM; GI50 (NCI-H460): > 100 µM; GI50 (SF-295): 72 µM; GI50 (PC-3): > 100 µM; GI50 (DMS-114): 52 µM; GI50 (OVCAR-3): > 100 µM; GI50 [5]: > 100 µM
CCCCCCCCCCCC[C@@H](O)[C@H]1CC[C@H]([C@H](O)CCCCCCCCCCCCC2=C[C@H](C)OC2=O)O1 [REL-SOLAMIN],> 100,> 100,> 100,> 100,> 100,> 100,58,> 100,> 100,> 100,> 100,> 100,> 100,13,> 100,> 100,> 100,> 100,71,> 100,GI50 (MKN-74): > 100 µM; GI50 (LOX IMVI): 29 µM; GI50 (DMS-273): > 100 µM; GI50 (HT-29): > 100 µM; GI50 (MKN-28): 14 µM; GI50 (MKN-45): > 100 µM; GI50 (St-4): > 100 µM; GI50 [3]: > 100 µM; GI50 (KM12): > 100 µM; GI50 (OVCAR-8): > 100 µM; GI50 (NCI-H23): 73 µM; GI50 (DU-145): > 100 µM; GI50 [4]: > 100 µM; GI50 (NCI-H460): > 100 µM; GI50 (SF-295): 40 µM; GI50 (PC-3): > 100 µM; GI50 (DMS-114): 4.3 µM; GI50 (OVCAR-3): > 100 µM; GI50 [5]: > 100 µM
